The record followed here is ChEMBL document CHEMBL5653631, “A Potent and Selective ULK1 Inhibitor Suppresses Autophagy and Sensitizes Cancer Cells to Nutrient Stress” (iScience, 2018).

In assay [1] the target is Serine/threonine-protein kinase 4 (Homo sapiens) (UniProt Q13043). Kind of assay: Inhibition of human recombinant MST1 at 40 nM in presence of ATP by radiometric assay relative to control.
Assay [2] has as its target Mitogen-activated protein kinase 9 (Homo sapiens) (UniProt P45984). The assay is described as follows: Inhibition of human recombinant JNK2 at 40 nM related to control ULK1.
In assay [3] the target is T1, Serine/threonine-protein kinase TAO2 (Homo sapiens) (UniProt Q9UL54).
T1 sequence (whole entry): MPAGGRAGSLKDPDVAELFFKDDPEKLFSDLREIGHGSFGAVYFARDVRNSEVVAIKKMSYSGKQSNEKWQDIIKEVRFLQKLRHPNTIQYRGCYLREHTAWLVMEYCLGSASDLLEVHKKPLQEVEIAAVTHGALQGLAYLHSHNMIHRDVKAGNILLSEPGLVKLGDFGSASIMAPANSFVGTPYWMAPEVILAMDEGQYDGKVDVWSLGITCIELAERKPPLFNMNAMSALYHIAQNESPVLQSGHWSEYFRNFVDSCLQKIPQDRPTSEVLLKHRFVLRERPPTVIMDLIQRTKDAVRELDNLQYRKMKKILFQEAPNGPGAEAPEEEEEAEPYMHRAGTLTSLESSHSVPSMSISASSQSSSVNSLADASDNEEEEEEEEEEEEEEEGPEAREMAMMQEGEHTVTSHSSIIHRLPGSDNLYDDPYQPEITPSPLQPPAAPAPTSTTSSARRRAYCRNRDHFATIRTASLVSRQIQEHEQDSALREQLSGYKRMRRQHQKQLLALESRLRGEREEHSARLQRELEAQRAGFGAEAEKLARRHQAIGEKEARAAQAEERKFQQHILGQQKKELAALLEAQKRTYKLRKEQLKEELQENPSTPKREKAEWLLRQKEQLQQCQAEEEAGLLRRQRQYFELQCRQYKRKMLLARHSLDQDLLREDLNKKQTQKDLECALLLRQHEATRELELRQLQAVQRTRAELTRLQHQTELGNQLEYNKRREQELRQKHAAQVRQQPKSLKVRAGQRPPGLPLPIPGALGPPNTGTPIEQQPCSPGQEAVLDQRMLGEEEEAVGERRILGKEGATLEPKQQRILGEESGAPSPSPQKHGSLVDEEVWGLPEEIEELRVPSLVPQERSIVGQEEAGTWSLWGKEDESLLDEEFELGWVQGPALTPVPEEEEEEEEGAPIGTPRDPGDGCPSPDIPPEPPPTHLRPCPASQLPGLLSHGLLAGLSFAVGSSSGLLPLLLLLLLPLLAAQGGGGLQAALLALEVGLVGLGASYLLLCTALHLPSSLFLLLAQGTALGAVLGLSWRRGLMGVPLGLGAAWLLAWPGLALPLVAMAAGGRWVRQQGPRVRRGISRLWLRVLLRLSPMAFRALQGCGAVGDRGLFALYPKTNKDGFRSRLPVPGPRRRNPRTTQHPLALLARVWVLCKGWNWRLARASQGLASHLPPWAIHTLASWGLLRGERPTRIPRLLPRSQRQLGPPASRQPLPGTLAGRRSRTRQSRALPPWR
The assay is described as follows: Inhibition of human recombinant TAO2 at 500 nM related to control ULK1.

Assay [4] concerns the target T2, Serine/threonine-protein kinase Nek11 (Homo sapiens) (UniProt Q8NG66).
T2 sequence (whole entry): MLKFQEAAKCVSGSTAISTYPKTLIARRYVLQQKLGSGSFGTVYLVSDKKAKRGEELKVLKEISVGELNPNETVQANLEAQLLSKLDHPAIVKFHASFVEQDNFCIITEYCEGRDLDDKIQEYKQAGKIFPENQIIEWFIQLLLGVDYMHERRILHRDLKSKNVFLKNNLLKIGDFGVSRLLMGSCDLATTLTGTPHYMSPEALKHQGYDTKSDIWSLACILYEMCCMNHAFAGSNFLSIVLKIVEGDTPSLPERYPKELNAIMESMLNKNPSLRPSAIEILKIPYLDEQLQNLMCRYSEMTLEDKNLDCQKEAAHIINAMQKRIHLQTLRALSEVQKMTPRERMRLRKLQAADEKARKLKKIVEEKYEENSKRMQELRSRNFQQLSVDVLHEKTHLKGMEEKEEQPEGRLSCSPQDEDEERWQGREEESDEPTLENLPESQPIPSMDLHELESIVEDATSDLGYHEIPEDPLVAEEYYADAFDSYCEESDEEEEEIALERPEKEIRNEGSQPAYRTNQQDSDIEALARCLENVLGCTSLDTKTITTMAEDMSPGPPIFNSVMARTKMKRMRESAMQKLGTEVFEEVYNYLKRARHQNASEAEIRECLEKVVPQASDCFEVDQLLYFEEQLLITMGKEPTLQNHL
Kind of assay: Inhibition of human recombinant NEK11 at 500 nM related to control ULK1.

The target of assay [5] is T3, Serine/threonine-protein kinase TAO3 (Homo sapiens) (UniProt Q9H2K8).
T3 sequence (whole entry): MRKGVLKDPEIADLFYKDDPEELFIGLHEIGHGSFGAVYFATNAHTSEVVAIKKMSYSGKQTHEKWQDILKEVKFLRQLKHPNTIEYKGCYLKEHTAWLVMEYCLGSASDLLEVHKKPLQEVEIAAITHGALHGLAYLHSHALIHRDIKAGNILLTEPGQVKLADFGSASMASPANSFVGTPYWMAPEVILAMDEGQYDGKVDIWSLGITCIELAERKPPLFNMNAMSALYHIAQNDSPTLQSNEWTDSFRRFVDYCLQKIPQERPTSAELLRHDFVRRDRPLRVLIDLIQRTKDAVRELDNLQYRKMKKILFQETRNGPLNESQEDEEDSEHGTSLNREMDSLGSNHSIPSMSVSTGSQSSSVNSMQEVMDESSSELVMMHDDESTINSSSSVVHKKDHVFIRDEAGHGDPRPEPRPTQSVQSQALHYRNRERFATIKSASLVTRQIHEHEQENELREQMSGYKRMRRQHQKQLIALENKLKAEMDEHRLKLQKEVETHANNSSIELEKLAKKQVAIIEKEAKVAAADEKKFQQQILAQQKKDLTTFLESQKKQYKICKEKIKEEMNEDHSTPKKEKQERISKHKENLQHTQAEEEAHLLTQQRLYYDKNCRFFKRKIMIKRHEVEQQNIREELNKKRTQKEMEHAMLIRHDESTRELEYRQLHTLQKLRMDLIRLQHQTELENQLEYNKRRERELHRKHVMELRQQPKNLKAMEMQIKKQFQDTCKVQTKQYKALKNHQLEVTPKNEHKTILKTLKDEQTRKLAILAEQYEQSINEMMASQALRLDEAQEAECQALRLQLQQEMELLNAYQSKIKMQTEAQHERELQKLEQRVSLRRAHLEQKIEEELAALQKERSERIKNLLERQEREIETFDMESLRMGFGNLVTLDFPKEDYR
Kind of assay: Inhibition of human recombinant TAO3 at 500 nM in presence of ATP by radiometric assay relative to control.

Chain of Serine/threonine-protein kinase 4 (Homo sapiens) (Q13043 whole entry, looked up): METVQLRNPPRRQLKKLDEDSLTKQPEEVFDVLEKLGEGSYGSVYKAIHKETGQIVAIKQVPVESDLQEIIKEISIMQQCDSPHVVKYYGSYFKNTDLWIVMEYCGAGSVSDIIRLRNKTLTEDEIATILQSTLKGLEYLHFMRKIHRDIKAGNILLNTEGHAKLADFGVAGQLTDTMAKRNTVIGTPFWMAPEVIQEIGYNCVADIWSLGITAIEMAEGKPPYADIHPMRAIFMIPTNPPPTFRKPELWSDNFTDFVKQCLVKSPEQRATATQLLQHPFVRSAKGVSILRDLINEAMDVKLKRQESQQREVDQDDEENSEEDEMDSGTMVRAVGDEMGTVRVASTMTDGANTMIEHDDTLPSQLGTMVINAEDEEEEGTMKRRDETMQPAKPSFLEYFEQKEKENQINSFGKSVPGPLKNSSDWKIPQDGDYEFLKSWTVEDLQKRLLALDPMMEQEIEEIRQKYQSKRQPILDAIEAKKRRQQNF
Chain of Mitogen-activated protein kinase 9 (Homo sapiens) (P45984 whole entry, looked up): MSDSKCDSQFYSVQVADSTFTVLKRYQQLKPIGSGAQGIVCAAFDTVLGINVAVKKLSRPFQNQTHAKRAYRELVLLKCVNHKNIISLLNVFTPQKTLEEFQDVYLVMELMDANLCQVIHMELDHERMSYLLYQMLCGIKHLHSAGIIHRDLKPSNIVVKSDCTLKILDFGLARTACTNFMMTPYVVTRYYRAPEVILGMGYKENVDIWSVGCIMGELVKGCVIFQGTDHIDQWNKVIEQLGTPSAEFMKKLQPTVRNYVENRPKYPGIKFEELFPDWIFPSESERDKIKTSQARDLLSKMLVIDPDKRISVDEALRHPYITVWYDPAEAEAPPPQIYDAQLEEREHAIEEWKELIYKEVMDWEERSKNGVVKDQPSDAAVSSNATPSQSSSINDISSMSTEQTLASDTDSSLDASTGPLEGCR

Consider `O=C(N[C@@H](C1CC1)C(F)(F)F)c1cc(-c2cnn3cc(-c4ccc(F)cc4)cnc23)cs1`, for which the inhibition (commonly the percentage by which the read-out fell short of the control) in assay [1] worked out at 0%. For the same molecule, the fold change (FC) in assay [2] was 0.01.

As to `CNC(=O)c1ccccc1Oc1nc(Nc2cc(OC)c(OC)c(OC)c2)ncc1Br`, the fold change (FC) in assay [3] came to 0; in assay [4] it was 0.11. Besides, the inhibition in assay [5] worked out at 0%.
